Reference: paper PMC6270263, “Factors Influencing the Antifolate Activity of Synthetic Tea-Derived Catechins” (Molecules, 2013)

Legend:
[1] = tested on: SK-MEL-28 melanoma cells; test: Apoptosis assay (cell death detection ELISA) with or without site markers; format: cell-based, human; conditions: SK-MEL-28, warfarin 10 µM
From the text: Serum is commonly used as a supplement in cell culture media. It supports cell growth and product formation by providing a broad spectrum of macromolecules, attachment factors, nutrients, and hormone and growth factors. The most commonly used animal serum supplement is foetal bovine serum, FBS (alternatively called foetal calf serum—FCS). Because BSA is a major component of FBS, the in vitro activity of catechins on tumour cells might be affected by their interaction with BSA. The effect of albumin binding on the biological activity of polyphenols is unclear. Does the bound ligand have some biological activity or does the polyphenol have to be in the free form to be active? To answer this question and to determine whether BSA-catechin interactions increase or decrease catechin anti-tumour activity, the proapoptotic activity of TMCG on SK-MEL-28 melanoma cells was probed in the presence of warfarin or ibuprofen [Figure 5(b)]. […] Because the binding of catechins to BSA seems to control drug availability, the lower affinity of TMCG and TMECG for serum albumins, with respect to natural tea catechins, might contribute to the high in vivo anti-tumour activity of these methylated synthetic catechins. […]
The human melanoma cell line SK-MEL-28 was obtained from American Type Culture Collection (ATCC, Manassas, VA, USA) and was maintained in Eagles’s Minimum Essential Medium (EMEM) supplemented with 10% (v/v) FBS and antibiotics at 37 °C in a humidified atmosphere containing 7.5% CO2. Cell viability was evaluated using the MTT cell proliferation assay. Cells were evaluated for apoptosis using a cell death detection ELISA (Cell Death Detection ELISAPLUS, Roche Diagnostics, Barcelona, Spain). […] The amount of nucleosomes is photometrically quantified at 405 nm by the peroxidase activity retained in the immunocomplexes. Apoptosis was defined as the specific enrichment of mono- and oligonucleosomes in the cytoplasm and was calculated by dividing the absorbance of treated samples with the absorbance of untreated samples after correcting for the number of cells. […]

[2] = tested on: SK-MEL-28 melanoma cell line; test: MTT cell proliferation assay in melanoma cells; format: cell-based, human; conditions: Homo sapiens, SK-MEL-28, 144 h, SK-MEL-28, after 6 days of treatment; read-out: Half-maximal inhibitory concentration (IC50)
From the text: Antifolate compounds are designed to inhibit DHFR and act specifically during DNA and RNA synthesis, making them more toxic to rapidly dividing cells. Recent evidences indicate that tea-catechins and derived compounds could inhibit DHFR and block the folate cycle in cancer cells. Although inhibition of DHFR by these compounds could be a plausible explanation for their antifolate activity, the possibility of these compounds targeting (folate)-enzymes other than DHFR could not be excluded. To determine whether these newly synthetized compounds disrupt the folate cycle in cell culture, we studied their antiproliferative activity in the melanoma cell line SK-MEL-28 (Table 3). Concentration- and time-dependent effects were analyzed using the colorimetric 4,5-(3)-dimethylthiazol-2-yl)-2,5-diphenyltetrazolium bromide (MTT) method.
The human melanoma cell line SK-MEL-28 was obtained from American Type Culture Collection (ATCC, Manassas, VA, USA) and was maintained in Eagles’s Minimum Essential Medium (EMEM) supplemented with 10% (v/v) FBS and antibiotics at 37 °C in a humidified atmosphere containing 7.5% CO2. Cell viability was evaluated using the MTT cell proliferation assay. Cells were evaluated for apoptosis using a cell death detection ELISA (Cell Death Detection ELISAPLUS, Roche Diagnostics, Barcelona, Spain). The principle of this test is the detection of mono- and oligonucleosomes in the cytoplasmic fractions of cell lysates using biotinylated anti-histone and peroxidase-coupled anti-DNA antibodies. The amount of nucleosomes is photometrically quantified at 405 nm by the peroxidase activity retained in the immunocomplexes. Apoptosis was defined as the specific enrichment of mono- and oligonucleosomes in the cytoplasm and was calculated by dividing the absorbance of treated samples with the absorbance of untreated samples after correcting for the number of cells. The induction of apoptosis in each melanoma cell line after a 7 h treatment with 2 μM staurosporin (100% apoptotic cells) was used to calculate the number of apoptotic cells. For these assays, cells were plated in a 96-well plate at a density of 1000–2000 cells/well. Compounds were added once at the beginning of the experiments.

[3] = UV-visible absorption spectra at different pH (ionization state); format: physicochemical; conditions: UV-visible spectra; pH range 5.0–9.0 for TMCG and TMECG
Description: It has been shown that the protonation state of methotrexate, trimethoprim, and pyrimethamine modulates the binding of these antifolates to DHFRs from several sources. […] The absorbance maximum at 278 nm undergoes a bathochromic displacement to 328 nm, which is greatest at alkaline pH (pH > 9.0).
To determine if the spectral changes in the SYCG and SYECG solutions with pH were due to an irreversible oxidation reaction or to a reversible protonation step, a pH titration experiment was carried out. An alkaline solution of SYCG and SYECG (pH 8.5) was acidified to pH 2.5 by the addition of dilute HCl. A change in the spectra was observed, indicating a reversible protonation reaction. The spectral changes with pH observed in SYCG and SYECG can be attributed to the hydroxyl group para on the ester-bonded gallate moiety. At acidic pH, these derivatives are mainly present as protonated species, whereas at basic pH or values near neutrality, these derivatives evolve toward the deprotonated species, which are stabilized by resonance (Scheme 3). […] As described, an important factor that decreases catechin bioavailability might be their inability to easily cross cellular membranes by passive diffusion. The presence of several hydroxyl groups in these molecules gives them a high hydrophilic character, which increases the difficulty of passing across lipid membranes.
Ultraviolet-visible absorption spectra of catechins at different pHs were recorded on a UV-Vis Perkin-Elmer Lambda-2 spectrophotometer with a spectral bandwidth of 1 nm at a scan speed of 60 nm s^−1. The experiments were performed in the same buffer as described for DHFR binding studies, and the ionic strength remained constant at an optimum value of 0.15 over the pH range that was used. The pH of the reaction was measured before and after the experiment.

[4] = molecular target: T1, bovine serum albumin (BSA) (Bos taurus, UniProt P02769); test: BSA binding by fluorescence quenching
T1 construct: purchased Sigma-Aldrich
From the text: Upon progressive additions of various concentrations of EGCG and TMCG to BSA, the emission intensity decreases, as shown in Figure 4(a). The quenching of the fluorescence intensity of BSA implies that the catechins bind at close proximity to the tryptophan and tyrosine residues and that the molecular arrangement of BSA is affected by the interactions. […] The binding constants (KA) for the BSA-EGCG and BSA-TMCG complexes are 1.54 × 10^7 M^−1 and 1.9 × 10^5 M^−1, respectively (Table 4), and their plots are shown in Figure 4(b). […] In light of these findings, it can be reasoned that the binding affinity to BSA is higher for the galloylated catechin than for the methylated one, which emphasises that the three phenolic groups can enhance hydrogen bonding between BSA and EGCG [25].
Fluorescence measurements were made on an automatic scanning Perkin-Elmer LS50B spectrofluorometer with 1.0 cm light path cells equipped with a 150 W xenon (XBO) light source. In all experiments, the fluorescence of BSA (5 × 10^−6 M) in 50 mM phosphate buffer of pH 7.5 was followed by excitation at 280 nm. The binding affinities of EGCG and TMCG with BSA in terms of binding constants were determined using the following equation [25]: log (F0−F)/F = log KA + n log [Q](1) where KA is the binding constant, n is the number of binding sites, F0 is the fluorescence intensity of free BSA and F is the consequent fluorescence upon the addition of catechins (Q). A plot of log (F0-F)/F against log [Q] was used to determine the values of KA and n from the intercept and the slope, respectively.

T1 sequence (P02769 25-607): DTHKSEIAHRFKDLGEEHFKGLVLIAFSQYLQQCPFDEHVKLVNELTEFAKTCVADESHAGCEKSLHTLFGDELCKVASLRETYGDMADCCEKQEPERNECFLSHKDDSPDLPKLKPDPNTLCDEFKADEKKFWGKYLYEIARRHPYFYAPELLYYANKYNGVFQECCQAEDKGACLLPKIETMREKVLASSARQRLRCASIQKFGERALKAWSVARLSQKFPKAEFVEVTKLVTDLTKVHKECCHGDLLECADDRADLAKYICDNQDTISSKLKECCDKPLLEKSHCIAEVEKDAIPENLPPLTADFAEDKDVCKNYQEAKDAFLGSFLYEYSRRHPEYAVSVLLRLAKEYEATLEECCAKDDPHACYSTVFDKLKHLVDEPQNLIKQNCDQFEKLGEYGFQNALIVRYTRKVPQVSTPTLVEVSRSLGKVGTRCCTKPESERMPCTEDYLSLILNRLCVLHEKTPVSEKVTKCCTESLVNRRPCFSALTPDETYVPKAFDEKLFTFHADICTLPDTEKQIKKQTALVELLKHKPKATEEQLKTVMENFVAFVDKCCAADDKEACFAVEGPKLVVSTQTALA

- IC50 [2]: 1.5 ± 0.4 µM
- Effect of pH on absorption spectra [3]: no significant changes
- Kd ([4]; 25 °C, pH 7.5, no site marker, read-out: Binding constant (KA) for BSA-catechin complex (converted)): 5.26 µM
- Number of binding sites n ([4]; catechin-BSA complex, double logarithmic plot): approximately 1
Compound: COc1cc(C(=O)O[C@H]2Cc3c(O)cc(O)cc3O[C@@H]2c2ccc(O)c(O)c2)cc(OC)c1OC [TMCG]
- Proapoptotic activity of TMCG in the presence of warfarin [1]: significantly increased
